Test results: patent US12116358B2, “Substituted indoles and methods of use thereof” (EPIZYME, INC., priority 2018, dated 2024)
Read-outs that look alike come from different tables or passages of the source.

Assays:
SETD2(1434-1711) = biological target: T1, SETD2(1434-1711) (Homo sapiens, UniProt Q9BYW2); experiment: SETD2 (1434-1711) assay; assay type: biochemical; conditions: read-out: SETD2 (1434-1711)
T1 construct: SETD2 (1434-1711) Assay; catalogue N/A
T1 sequence (Q9BYW2 1434-1711): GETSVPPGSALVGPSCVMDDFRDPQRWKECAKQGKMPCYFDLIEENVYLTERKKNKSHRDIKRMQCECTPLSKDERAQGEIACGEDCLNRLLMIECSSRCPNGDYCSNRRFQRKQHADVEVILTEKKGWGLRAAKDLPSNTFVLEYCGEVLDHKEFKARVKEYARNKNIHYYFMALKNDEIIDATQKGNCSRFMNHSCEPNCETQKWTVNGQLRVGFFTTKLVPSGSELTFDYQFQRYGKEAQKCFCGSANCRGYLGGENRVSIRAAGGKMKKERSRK

H3K36me3 in A549 cells = experiment: In-Cell Western (ICW) assay of SETD2 inhibitors (A549 assay); assay type: cell-based, human; conditions: A549 cells, read-out: SETD2 A549
Summary of the method: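 A549 cells seeded at 4,000/well onto compound and incubated 3 days at 37° C. Methanol-fixed cells stained overnight at 4° C with anti-H3K36me3 (1:1000), then IRDye 800CW secondary with DRAQ5 DNA counterstain. Plates read by Licor imaging at 700 and 800 channels.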

SMILES	IC50 (SETD2(1434-1711)) [nM]	IC50 (H3K36me3 in A549 cells) [nM]	IC50 (H3K36me3 in A549 cells; Homo sapiens) [nM]
Cc1ccc(F)c2cc(C(=O)NC3CCCC(N4CCN5C(=O)CCCC5C4)C3)[nH]c12 (stereo not drawn) [compound 1078]	10	30	
Cc1ccc(F)c2cc(C(=O)NC3CCCC(N4CCn5c(nn(C)c5=O)C4)C3)[nH]c12 (stereo not drawn) [compound 1142]	4800	> 2000	
Cc1ccc(F)c2cc(C(=O)Nc3cccc(N4CCCN(C)CC4)c3)[nH]c12 [compound 279]	40		900
Cc1ccc(F)c2cc(C(=O)Nc3cccc(-c4cncn4C)c3)[nH]c12 [compound 197]	100		400
Cc1ccc(F)c2cc(C(=O)NC3CCCC(N4CCn5c(cn(C)c5=O)C4)C3)[nH]c12 (stereo not drawn) [compound 1179]	500	800	
Cc1ccc(F)c2cc(C(=O)Nc3cc(F)cc(N4C[C@H]5CCN(C)[C@H]5C4)c3)[nH]c12 [compound 122]	10		300
CNC(=O)CN1CCCC(NC(=O)c2cc3c(F)ccc(C)c3[nH]2)C1 (stereo not drawn) [compound 384]	> 10000	> 2000	
Cc1ccc(F)c2cc(C(=O)Nc3cccc(C4CCNC4)c3)[nH]c12 (stereo not drawn) [compound 283]	40		1000
Cc1ccc(F)c2cc(C(=O)N[C@@H]3CCC[C@H](N4CCN(C(=O)NC5CCOCC5)CC4)C3)[nH]c12 [compound 1037]	30		300
COCC1(N(C)C)CCN(c2cccc(NC(=O)c3cc4c(F)ccc(C)c4[nH]3)c2)CC1 [compound 253]	50	600	
Cc1ccc(F)c2cc(C(=O)NC3CCCC(N4CCC(N5CCOC5=O)C4)C3)[nH]c12 (stereo not drawn) [compound 958]	40	200	
Cc1ccc(F)c2cc(C(=O)Nc3cccc(N4CCC(N5CCCC5)CC4)c3)[nH]c12 [compound 180]	30		400
Cc1ccc(N2CCOCC2)cc1NC(=O)c1cc2cccc(C)c2[nH]1 [compound 490]	6500	12100	
CC(=O)N1CCN(C[C@@H]2CCC[C@H](NC(=O)c3cc4c(F)ccc(C)c4[nH]3)C2)CC1 [compound 1077]	> 10000		> 2000
CC(=O)N1CCC2CN(c3cc(F)cc(NC(=O)c4cc5c(F)ccc(C)c5[nH]4)c3)CC21 (stereo not drawn) [compound 14]	7	50	
Cc1ccc(F)c2cc(C(=O)Nc3cccc(N4CCN(C(=O)CF)CC4)c3)[nH]c12 [compound 92]	30	200	
CCN(CC)C1CCc2cc(NC(=O)c3cc4cccc(C)c4[nH]3)ccc2C1 (stereo not drawn) [compound 537]	900		> 25000
CCOC(=O)N1CCC(N2CCC[C@H](NC(=O)c3cc4c(F)ccc(C)c4[nH]3)C2)CC1 [compound 876]	> 10000		> 2000
COCCC(=O)N1CCN(c2cccc(NC(=O)c3cc4c(F)ccc(C)c4[nH]3)c2)CC1 [compound 75]	60	200	
Cc1cccc2cc(C(=O)Nc3ccc4cnccc4c3)[nH]c12 [compound 437]	600	4800	
CC(=O)N1CC2CC1CN2c1cccc(NC(=O)c2cc3c(F)ccc(C)c3[nH]2)c1 (stereo not drawn) [compound 292]	700	1100	
Cc1ccc(F)c2cc(C(=O)Nc3ccc4ncc(CN(C)C)n4c3)[nH]c12 [compound 536]	800	> 25000	
CC(=O)N(C)C1CCCN(C2COCC(NC(=O)c3cc4c(F)ccc(C)c4[nH]3)C2)C1 (stereo not drawn) [compound 305]	500		1200
Cc1ccc(F)c2cc(C(=O)Nc3cccc4c(N5CCN(C)CC5)[nH]nc34)[nH]c12 [compound 391]	200		2000
CC(=O)N1C2CCC1CN(C1CCCC(NC(=O)c3cc4c(F)ccc(C)c4[nH]3)C1)C2 (stereo not drawn) [compound 927]	1700	> 2000	
Cc1ccc(F)c2cc(C(=O)Nc3cc(F)cc(N4CCC(N(C)C)C4)c3)[nH]c12 (stereo not drawn) [compound 53]	5	100	

SMILES	IC50 (SETD2(1434-1711)) [nM]	IC50 (H3K36me3 in A549 cells) [nM]	IC50 (H3K36me3 in A549 cells; Homo sapiens) [nM]
CC(=O)N[C@H]1CC[C@H](NC(=O)c2cc3c(F)ccc(C)c3[nH]2)CC1 [compound 512]	13200	16100	
Cc1ccc(F)c2cc(C(=O)NC3CCCc4cnccc43)[nH]c12 (stereo not drawn) [compound 403]	2500	2700	
Cc1ccc(F)c2cc(C(=O)NC3CCCC(N4CCC(N(C)C(=O)C(C)C)C4)C3)[nH]c12 (stereo not drawn) [compound 970]	5000	> 2000	
CC(=O)N1CCN(CC2CCCN(C(=O)c3cc4c(F)ccc(C)c4[nH]3)C2)CC1 (stereo not drawn) [compound 877]	> 10000		> 2000
CC(=O)N(CCO)C1CCN([C@H]2CCC[C@@H](NC(=O)c3cc4c(F)ccc(C)c4[nH]3)C2)C1 (stereo partly drawn) [compound 872]	100		1200
Cc1cccc2cc(C(=O)NC3CN(C(=O)CCCN)C3)[nH]c12 [compound 594]	> 50000		> 25000
CC(=O)N1CCN(C2CCCC(NC(=O)c3cc4c(F)ccc(C)c4[nH]3)C2)CC1C (stereo not drawn) [compound 967]	20	100	
Cc1ccc(F)c2cc(C(=O)N[C@@H]3CCC[C@H](N4CCN(C)CC4=O)C3)[nH]c12 [compound 916]	1000		1300
Cc1cccnc1C(CCC(=O)Nc1cccnc1)NC(=O)c1cc2cccc(C)c2[nH]1 (stereo not drawn) [compound 523]	8800	20800	
Cc1ccc(F)c2cc(C(=O)NC3CCCC(N4CCN(C(=O)CO)C(C(F)(F)F)C4)C3)[nH]c12 (stereo not drawn) [compound 1173]	40	30	
CC(=O)NC1CCN([C@H]2CCC[C@@H](NC(=O)c3cc4c(F)ccc(C)c4[nH]3)C2)C1 (stereo partly drawn) [compound 833]	40	400	
CC(=O)N1CCN(C2CCCC(NC(=O)c3cc4c(F)ccc(C)c4[nH]3)C2)CC1C(F)(F)F (stereo not drawn) [compound 1018]	30	70	
Cc1cccc2cc(C(=O)NCCc3ccccc3N3CCOCC3)[nH]c12 [compound 511]	11600		15800
Cc1cc(Cn2ccnc2)cnc1C(NC(=O)c1cc2c(F)ccc(C)c2[nH]1)C1CC1 (stereo not drawn) [Cpd. No. 161, N-((5-((1H-imidazol-1-yl)methyl)-3-methylpyridin-2-yl)(cyclopropyl)methyl)-4-fluoro-7-methyl-1H-indole-2-carboxamide]	30		300
Cc1cccc2cc(C(=O)Nc3cccc(N4CCC(NC(=O)CN)CC4)c3)[nH]c12 [compound 439]	200	5000	
Cc1ccc(F)c2cc(C(=O)Nc3cc(N4CCN(C)CC4)ccn3)[nH]c12 [compound 612]	> 50000		> 25000
Cc1ccc(F)c2cc(C(=O)Nc3cccc(N4CCOC5(CC5)C4)c3)[nH]c12 [compound 287]	200		1000
CCNC(=O)N1CCN(C2CCCC(NC(=O)c3cc4c(F)ccc(C)c4[nH]3)C2)CC1 (stereo not drawn) [compound 949]	700	> 2000	
Cc1ccc(F)c2cc(C(=O)Nc3cccc(C4CCC(N(C)C)CC4)c3)[nH]c12 (stereo not drawn) [compound 343]	80	1800	
Cc1ccc(F)c2cc(C(=O)NC(C(N)=O)c3ccccn3)[nH]c12 (stereo not drawn) [compound 503]	9700	14800	
Cc1ccc(F)c2cc(C(=O)Nc3cccc(-c4ncn[nH]4)c3)[nH]c12 [compound 304]	300	1200	
Cc1ccc(F)c2cc(C(=O)Nc3cccc([C@@H]4CC[C@H](N(C)C)C4)c3)[nH]c12 [compound 302]	30		1200
Cc1ccc(F)c2cc(C(=O)Nc3cccc(N4CCN(C(=O)N(C)C)CC4)c3)[nH]c12 [compound 55]	50		100
Cc1noc(CN)c1C(NC(=O)c1cc2cccc(C)c2[nH]1)C1CC1 (stereo not drawn) [compound 602]	> 50000		> 25000
Cc1ccc(F)c2cc(C(=O)N[C@@H]3CCC[C@H](c4nccc(=O)[nH]4)C3)[nH]c12 [compound 1013]	706		> 2000
